# Test results published in ChEMBL document CHEMBL5576103, “Targeting prolidase. A survey of the literature data to depict a structure-activity relationship frame and to address future studies for drug development” (Bioorg Med Chem, 2024).
# How the values were obtained:
# Xaa-Pro dipeptidase [1] = molecular target: T1, Xaa-Pro dipeptidase (Homo sapiens, UniProt P12955); assay: Competitive inhibition of prolidase (unknown origin) in erythrocytes assessed as inhibition constant
# T1 sequence (P12955 whole entry): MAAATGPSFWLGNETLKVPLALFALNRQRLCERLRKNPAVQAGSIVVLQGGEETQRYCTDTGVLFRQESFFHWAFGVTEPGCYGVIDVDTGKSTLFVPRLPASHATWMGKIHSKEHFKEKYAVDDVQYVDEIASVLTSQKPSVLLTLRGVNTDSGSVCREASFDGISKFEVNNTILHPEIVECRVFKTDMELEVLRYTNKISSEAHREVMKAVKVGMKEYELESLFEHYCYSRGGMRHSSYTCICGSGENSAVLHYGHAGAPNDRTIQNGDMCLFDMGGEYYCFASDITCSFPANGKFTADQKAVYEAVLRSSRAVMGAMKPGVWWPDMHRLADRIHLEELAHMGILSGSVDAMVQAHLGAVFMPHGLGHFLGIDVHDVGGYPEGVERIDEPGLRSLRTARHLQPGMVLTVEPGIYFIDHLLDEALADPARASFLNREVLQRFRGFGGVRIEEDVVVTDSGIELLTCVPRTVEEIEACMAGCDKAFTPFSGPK
# MDA-MB-231 = assay: Cytotoxicity against human MDA-MB-231 cells assessed as reduction in cell viability measured for 72 hrs by MTT assay; details: MDA-MB-231, 72 h
# MCF7 = assay: Cytotoxicity against human MCF7 cells assessed as reduction in cell viability measured for 72 hrs by MTT assay; details: MCF7, 72 h
# SK-MEL-5 = assay: cells; details: Homo sapiens, SK-MEL-5, 48 h
# Description: Growth inhibition of human SK-MEL-5 cells after 48 hrs by sulforhodamine B assay
# Xaa-Pro dipeptidase [2] = molecular target: T1, Xaa-Pro dipeptidase; assay: Inhibition of prolidase (unknown origin)
structure (smiles),measurement,setting,value
NC(=O)Nc1ccc(O)cc1,Ki,Xaa-Pro dipeptidase [1],9.73 µM
O=NN(CCCl)C(=O)N1CCC[C@H]1C(=O)O,IC50,MDA-MB-231,88 µM
same,IC50,MCF7,102 µM
N[C@@H](Cc1ccc(N(CCCl)CCCl)cc1)C(=O)O,GI50,SK-MEL-5,74.8 µM
COc1cccc2c1C(=O)c1c(O)c3c(c(O)c1C2=O)C[C@@](O)(C(C)=O)C[C@@H]3O[C@H]1C[C@H](N)[C@H](O)[C@H](C)O1 [DAUNORUBICIN],IC50,Xaa-Pro dipeptidase [2],0.3 µM
COc1cccc2c1C(=O)c1c(O)c3c(c(O)c1C2=O)C[C@@](O)(C(=O)CO)C[C@@H]3O[C@H]1C[C@H](N)[C@H](O)[C@H](C)O1 [DOXORUBICIN],IC50,Xaa-Pro dipeptidase [2],10 µM
